# Measured values reported in patent publication US6686334B2, “Use of inhibitors of protein kinase C epsilon to treat pain” (Regents of the University of California, priority 1998, dated 2004).
# Entries after “also recorded” stand apart in the source; their conditions may differ. Read-outs that look alike come from different tables or passages of the source.
# Columns and labels:
# [1] = system: epinephrine-induced hyperalgesia; assay: Epinephrine-induced mechanical hyperalgesia, paw withdrawal threshold (Ugo Basile Analgesimeter); assay type: in vivo, rat; conditions: for Effect on epinephrine-induced hyperalgesia: rat hindpaw, intradermal, mechanical stimulus; for Percentage decrease in nociceptive threshold in response to epinephrine: epinephrine 100 ng, DAMGO, SQ22536, BIM, Rp-cAMPs 1 μg, WIPTIDE 0.1 μg, larger value = more hyperalgesia
# Procedure: The roles of PKC, protein kinase A (“PKA”) and the μ-opioid receptor in mediating epinephrine-induced hyperalgesia were assessed by measuring the effects of: Rp-adenosine 3′, 5′-cyclic monophosphate (“Rp-cAMPs”) and WIPTIDE, both inhibitors of PKA; SQ22536, an inhibitor of adenylyl cyclase, an enzyme activated by PKA; bisindolymaleimide (“BIM”), a nonselective inhibitor of PKC isozymes; and [D-Ala^2, N-Me-Phe^4, Gly^5-ol]-enkephalin (“DAMGO”), μ-opioid receptor agonist. The dose for each inhibitor was 1 μg, except for WIPTIDE, which was administered in a 100 ng dose.
# [2] = system: tetrodotoxin-resistant sodium current (TTX-RINa); assay type: cell-based, rat; conditions: for Effect on epinephrine-induced potentiation of TTX-RINa: 1 μM epinephrine, propranolol 2 μM, phentolamine 5 μM, Rp-cAMPs 100 μM, BIM 100 μM
# [3] = system: wild-type mice; assay: von Frey hair paw withdrawal frequency in mice; assay type: in vivo, mouse; conditions: 100 ng intraplantar, wild-type mice, 4, 6.9 or 14.8 grams
# Procedure: Mechanical, thermal and chemical nociception were evaluated in wild-type and PKCε-mutant mice. For both wild-type (n=8) and PKCε-mutant (n=8) mice, the basal mechanical nociceptive threshold was measured as the frequency at which mice withdrew their paws after being poked in the hindpaw with a von Frey Hair (“VFH”; Stoelting Co.) applying a force of 4, 6.9 or 14.8 grams.
# [4] = similar dose, normal rat, earlier studies; cited from earlier work
# [5] = system: formalin-induced hyperalgesia; conditions: earlier studies; cited from earlier work
# [6] = system: PGE2-induced hyperalgesia; conditions: earlier studies; cited from earlier work
# [7] = system: PGE2-induced hyperalgesia; assay: PGE2-induced mechanical hyperalgesia, paw withdrawal threshold; assay type: in vivo, rat; conditions: PGE2 100 ng; for Effect on PGE2-induced hyperalgesia: rat hindpaw, mechanical stimulus
# Procedure: The roles of PKC, protein kinase A (“PKA”) and the μ-opioid receptor in mediating epinephrine-induced hyperalgesia were assessed by measuring the effects of: Rp-adenosine 3′, 5′-cyclic monophosphate (“Rp-cAMPs”) and WIPTIDE, both inhibitors of PKA; SQ22536, an inhibitor of adenylyl cyclase, an enzyme activated by PKA; bisindolymaleimide (“BIM”), a nonselective inhibitor of PKC isozymes; and [D-Ala^2, N-Me-Phe^4, Gly^5-ol]-enkephalin (“DAMGO”), μ-opioid receptor agonist. The dose for each inhibitor was 1 μg, except for WIPTIDE, which was administered in a 100 ng dose. DAMGO was co-injected with epinephrine whereas the other inhibitors were applied 15 minutes prior to epinephrine injection.
# For mechanical nociceptive testing, the nociceptive flexion reflex was quantified using an Ugo Basile analgesymeter that applies a constantly increasing force measured in grams (Stoelting, Chicago, Ill.; K. O. Aley, J. D. Levine, J. Neurosci. 17, 8018-23 (1997)). The mean basal mechanical threshold for rats used in these experiments was 105.3+/−2.8 grams. The effects of hyperalgesia-inducing agents epinephrine (100 ng) and PGE2 (100 ng) on mechanical nociceptive thresholds were determined by measuring paw withdrawal frequencies at 15, 20, and 25 minutes after administration of the hyperalgesic agent and then calculating the mean of these three readings.
# [8] = system: isoproterenol-induced hyperalgesia; assay: Isoproterenol-induced mechanical hyperalgesia, paw withdrawal threshold; assay type: in vivo, rat; conditions: for Effect on isoproterenol-induced hyperalgesia: rat hindpaw, intradermal
# [9] = system: PGE2-induced hyperalgesia; conditions: PGE2 100 ng; inhibitor 1 μg; data from Khasar 1995 or Taiwo and Levine 1991; cited from earlier work
# [10] = system: vincristine-induced hyperalgesia; assay: Vincristine-induced hyperalgesia, mechanical stimuli (Ugo Basile analgesymeter); assay type: in vivo, rat; conditions: vincristine 100 μg/kg intravenously daily, after the second day
# Procedure: (§1) Humans undergoing chemotherapy frequently experience hyperalgesia. Vincristine is a chemotherapeutic drug known to cause such hyperalgesia, and a rat model of vincristine-induced hyperalgesia was established as follows. Vincristine (100 μg/kg in saline; Sigma Chemical Catalog) was administered intravenously daily to each of 32 rats over a period of two weeks.
# To determine whether administration of an inhibitor of PKCε would lessen vincristine-induced hyperalgesia in the rat model described above, on the 13th day of vincristine treatment, rats received no treatment (n=16) or intradermal injections of sterile water followed by intradermal injections of either 1 μg εV1-2, a PKCε inhibitory peptide (n=8; labeled “PKCεI” on FIG. 12A), or 1 μg S-VεV1-2, a scrambled version of the εV1-2 peptide (n=8; labeled “PCKεI SCR” on FIG. 12A), 20-30 minutes before administration of a mechanical stimulus.
# [11] = Rotorod analysis of motor deficits; assay type: in vivo, rat; conditions: vincristine 100 μg/kg intravenously daily
# Procedure: as §1
# [12] = system: diabetes-induced hyperalgesia; assay: Streptozotocin diabetes-induced hyperalgesia, mechanical stimuli; assay type: in vivo, rat; conditions: 1 μg intradermal after sterile water, four weeks after streptozotocin 70 mg/kg
# Procedure: Persons with uncontrolled or poorly controlled diabetes frequently experience hyperalgesia. The role of PKCε in diabetic neuropathy was examined in a model of diabetes in which male Sprague-Dawley rats receive subcutaneous injection of streptozotocin (70 mg/kg), a pancreatic β-cell toxin. These rats display hyperglycemia and glucosuria within 24 hours after the injection and show decreased nociceptive thresholds in response to mechanical stimuli administered by Ugo Basile analgesymeter in the hind paw after one week (Ahlgren, S. C. et al, J. Neurophysiology, 68, 2077-2085 (1992); Ahlgren, S. C. and Levine, J. D., Neuroscience 52, 1049-1055 (1993)). Four weeks after the streptozotocin injection, each rat received no treatment (n=8) or an intradermal injection of sterile water followed by a intradermal injections of (1) 1 μg bisindolymaleimide, a protein kinase C inhibitor (n=4; labeled “BIM” on FIG. 12B), (2) 1 μg εV1-2, a PKCε inhibitory peptide (n=8; labeled “PKCεI” on FIG. 12B), or (3) 1 μg S-VεV1-2, a scrambled version of the εV1-2 peptide (n=4; labeled “PCKεI SCR” on FIG. 12B) and were subsequently exposed to mechanical stimuli.
# [13] = system: carrageenan-induced hyperalgesia; assay: Carrageenan-induced acute hyperalgesia, mechanical stimuli; assay type: in vivo, rat; conditions: 1 μg injected at the same time as carrageenan
# Procedure: The acetic acid writhing experiments reported in Example 3 indicate that PKCε contributes to inflammatory pain. To investigate whether PKCε mediates hyperalgesia induced by other inflammatory agents, rats received intradermal 10 μl injections of a 1% solution of carrageenan, a potent irritant (Ferreira, S. H. et al, Nature 334, 698-700 (1988)) and three and a half hours later, the rats received no treatment (n=12; labeled “Car-4” on FIG. 13) or intradermal injections of sterile water followed by intradermal injections of either 1 μg εV1-2, a PKCε inhibitory peptide (n=6; labeled “εV” on FIG. 13), or 1 μg S-VεV1-2, a scrambled version of the εV1-2 peptide (n=6; labeled “S-εV” on FIG. 13).
# To examine whether protein kinase C modulates the processes by which a brief inflammatory event causes prolonged hyperalgesia many days later, rats received carrageenan and 1 μg BIM injections at the same time. Hyperalgesia was measured 72 hours later, when the rats were treated PGE2. […] Therefore, administration of an inhibitor of PKC either at approximately the same time as the inflammatory agent giving rise to chronic, prolonged hyperalgesia or at about the same time as the hyperalgesia-inducing stimulus can lessen such chronic hyperalgesia.
# [14] = system: prolonged PGE2-induced hyperalgesia; assay: Prolonged hyperalgesia in carrageenan-sensitized rats (chronic inflammatory pain model); assay type: in vivo, rat; conditions: 1 μg at the same time as carrageenan; PGE2 72 or more hours later
# Source text: In order to investigate the role, if any, of PKCε in chronic inflammatory pain, the following model system for chronic inflammatory pain was developed. Rats received intradermal hind paw injections of carrageenan, an inflammatory agent. […] This was considered an acute response to the carrageenan-induced inflammation. Although administration of Prostaglandin E2 (“PGE2”), 5-hydroxytryptamine (“5-HT,” serotonin) or CGS-21680 (an adenosine A2-selective receptor agonist) normally causes untreated rats (that is, rats that have not received carrageenan injections) to experience hyperalgesia lasting up to 6 hours, the hyperalgesia experienced by carrageenan-sensitized rats following administration of any one of these substances lasted up to 24 hours.
# The prolonged PGE2-induced hyperalgesia normally seen in carrageenan-sensitized rats was inhibited by administration of BIM or εV1-2.
# To examine whether protein kinase C modulates the processes by which a brief inflammatory event causes prolonged hyperalgesia many days later, rats received carrageenan and 1 μg BIM injections at the same time. Hyperalgesia was measured 72 hours later, when the rats were treated PGE2. […]
# [15] = system: small diameter DRG neurons; assay: Current-clamp (perforated-patch whole-cell) excitability of cultured DRG neurons; assay type: cell-based, rat
# [16] = after 1 μg epinephrine injection
# [17] = 10 μM propranolol 30 seconds prior to and with 1 μM epinephrine
molecule,measurement,setting,value
COc1ccc2c(c1)c(CC(=O)O)c(C)n2C(=O)c1ccc(Cl)cc1 [indomethacin],Effect on epinephrine-induced hyperalgesia,[1],Neither indomethacin treatment nor sympathectomy had any effect
"CNC[C@H](O)c1ccc(O)c(O)c1 [Epinephrine, epinephrine]",Duration of hyperalgesia,[1]; [16],approximately 2 hours
same,Onset latency of hyperalgesia (significant),[1]; [16],2 min
same,Time to peak hyperalgesic effect,[1]; [16],≤ 5 min
same,Effect on paw withdrawal threshold,"[1]; intradermal 1 ng to 1 μg, dorsal hindpaw",dose-dependent decrease
same,Effect on TTX-RINa,[2]; epinephrine 1 μM,marked potentiation
same,Percent-withdrawal response to VFH stimulus,[3],dramatically increased
Cc1ccc(N(CC2=NCCN2)c2cccc(O)c2)cc1 [phentolamine],Effect on epinephrine-induced hyperalgesia,[1],did not significantly affect
same,Effect on basal paw threshold,[4],no effect
same,Effect on formalin-induced hyperalgesia,[5],significantly reversed
same,Effect on the ability of rolipram to prolong PGE2-induced hyperalgesia,[6],inhibited
WIPTIDE,Effect on PGE2-induced hyperalgesia,[7],significantly attenuated
same,Effect on isoproterenol-induced hyperalgesia,[8],almost completely abolished
Nc1ncnc2c1ncn2C1CCCO1 (stereo not shown) [SQ22536],Percentage decrease in nociceptive threshold in response to epinephrine,[1],9.5 ± 2.4 %
same,Percentage decrease in nociceptive threshold in response to PGE2,[9],10.0 ± 2.9 %
"CC(C)NCC(O)c1ccc(O)c(O)c1 (stereo not shown) [Isoproterenol, isoproterenol]",Hyperalgesia produced in the absence of epinephrine,[8]; intradermal injection,dose-dependent hyperalgesia
same,Percentage decrease in nociceptive threshold in response to isoproterenol alone,[8]; isoproterenol 100 ng alone,25.8 ± 0.9%
CC[C@]1(O)C[C@H]2CN(CCc3c([nH]c4ccccc34)[C@@](C(=O)OC)(c3cc4c(cc3OC)N(C=O)[C@H]3[C@@](O)(C(=O)OC)[C@H](OC(C)=O)[C@]5(CC)C=CCN6CC[C@]43[C@@H]65)C2)C1 [Vincristine],Effect on mechanical nociceptive thresholds,[10],acute dose-dependent decrease
same,Motor deficits,[11],did not show any significant motor deficits
"CN(C)CCCn1cc(C2=C(c3c[nH]c4ccccc34)C(=O)NC2=O)c2ccccc21 [BIM, bisindolymaleimide I]",Percentage decrease in nociceptive threshold in response to epinephrine,[1],4.6 ± 2.1 %
same,Effect on epinephrine-induced hyperalgesia,[1],inhibits epinephrine-induced hyperalgesia to a similar extent as εV1-2
same,Percentage decrease in nociceptive threshold in response to PGE2,"[7]; BIM 1 μg, WIPTIDE 0.1 μg",33.4 ± 4.1%
same,Effect on PGE2-induced hyperalgesia,[7],no effect
same,Percentage decrease in nociceptive threshold in response to isoproterenol,"[8]; isoproterenol 100 ng, BIM 1 μg, WIPTIDE 0.1 μg",7.1 ± 2.4 %
same,Effect on isoproterenol-induced hyperalgesia,[8],significantly attenuated
same,Effect on epinephrine-induced potentiation of TTX-RINa,[2],significantly decreased
same,Effect on diabetes-induced decrease in nociceptive threshold,[12],somewhat greater reduction in the percentage decrease in nociceptive threshold than PKCε I; also recorded: markedly reduced
same,Effect on acute hyperalgesia induced by carrageenan,[13],attenuated
same,Effect on prolonged hyperalgesia on PGE2 treatment after carrageenan,[14],attenuated
CC(C)NCC(O)COc1cccc2ccccc12 (stereo not shown) [propranolol],Effect on epinephrine-induced hyperalgesia,[1],significantly attenuated
same,Effect on isoproterenol-induced hyperalgesia,[8],significantly attenuated
same,First-spike latency after epinephrine addition,[15]; [17],233 ± 10 ms
same,Spike number after epinephrine addition,[15]; [17],1.3±0.2
same,Effect on epinephrine-induced increase in spike number and decrease in first-spike latency,"[15]; 10 μM propranolol, 1 μM epinephrine",abolished
same,Effect on epinephrine-induced potentiation of TTX-RINa,[2],eliminated this potentiation
"Nc1ncnc2c1ncn2[C@@H]1O[C@@H]2CO[P@@](O)(=S)O[C@H]2[C@H]1O [Rp-cAMPs, Rp-adenosine 3′, 5′-cyclic monophosphate]",Effect on epinephrine-induced potentiation of TTX-RINa,[2],abolished
"CCCCC[C@H](O)/C=C/[C@H]1[C@H](O)CC(=O)[C@@H]1C/C=C\CCCC(=O)O [PGE2, prostaglandin E2]",Percent-withdrawal response to VFH stimulus,[3],dramatically increased
